Columns and labels:
HCT-116 = assay: Antiproliferative activity against human HCT116 cells after 72 hrs by Alamar blue assay; type: functional; details: HCT-116, 72 h
[1] = Antiproliferative activity against human hTERT-HME1 cells after 72 hrs by Alamar blue assay; type: cell-based
NCI-H1299 = assay: Antiproliferative activity against human NCI-H1299 cells after 72 hrs by Alamar blue assay; type: functional; details: NCI-H1299, 72 h
BXPC-3 = assay: Antiproliferative activity against human BxPC3 cells after 72 hrs by Alamar blue assay; type: functional; details: BXPC-3, 72 h
[2] = biological target: T1, Kinesin-like protein KIF11 (Homo sapiens, UniProt P52732)
T1 sequence (P52732 whole entry): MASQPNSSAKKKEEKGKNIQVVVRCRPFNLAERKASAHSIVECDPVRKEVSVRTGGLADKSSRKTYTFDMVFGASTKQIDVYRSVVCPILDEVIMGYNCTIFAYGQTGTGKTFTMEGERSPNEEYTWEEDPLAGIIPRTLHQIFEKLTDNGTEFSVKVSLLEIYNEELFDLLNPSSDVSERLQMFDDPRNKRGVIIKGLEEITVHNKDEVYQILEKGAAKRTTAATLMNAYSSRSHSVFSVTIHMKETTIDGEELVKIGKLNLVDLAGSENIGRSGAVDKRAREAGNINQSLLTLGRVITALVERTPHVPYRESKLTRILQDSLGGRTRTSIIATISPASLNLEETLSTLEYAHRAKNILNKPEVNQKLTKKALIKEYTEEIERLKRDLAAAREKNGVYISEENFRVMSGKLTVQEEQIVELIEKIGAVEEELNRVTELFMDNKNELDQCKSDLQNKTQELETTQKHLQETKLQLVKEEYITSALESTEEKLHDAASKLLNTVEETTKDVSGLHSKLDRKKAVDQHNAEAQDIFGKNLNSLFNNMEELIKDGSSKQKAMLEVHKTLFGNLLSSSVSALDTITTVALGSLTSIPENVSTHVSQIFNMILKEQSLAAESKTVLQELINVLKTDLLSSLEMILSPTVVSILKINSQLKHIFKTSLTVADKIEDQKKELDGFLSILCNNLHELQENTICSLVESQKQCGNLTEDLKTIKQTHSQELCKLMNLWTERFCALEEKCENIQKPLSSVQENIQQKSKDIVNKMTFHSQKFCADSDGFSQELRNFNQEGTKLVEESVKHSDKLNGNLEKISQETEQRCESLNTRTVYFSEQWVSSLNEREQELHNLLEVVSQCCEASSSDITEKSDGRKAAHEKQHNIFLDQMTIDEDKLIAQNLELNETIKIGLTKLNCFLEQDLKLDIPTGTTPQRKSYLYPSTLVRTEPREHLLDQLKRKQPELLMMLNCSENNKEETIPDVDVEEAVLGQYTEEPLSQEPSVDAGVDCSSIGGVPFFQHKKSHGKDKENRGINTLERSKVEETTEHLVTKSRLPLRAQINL

[3] = biological target: T1, Kinesin-like protein KIF11; remark: listed apart in the source
K562 = assay: cells; details: Homo sapiens, K562, 72 h
Description: Antiproliferative activity against human K562 cells after 72 hrs by Alamar blue assay

[4] = Apparent permeability of the compound by PAMPA method; type: ADME
Liver microsomes = assay: Intrinsic clearance in human liver microsomes assessed as per mg of protein; type: ADME, Microsome
Liver = assay: Intrinsic clearance in mouse liver microsomes assessed as per mg of protein; type: ADME, Microsome
[5] = Intrinsic clearance in human hepatocytes assessed as per million cells; type: ADME, cell-based, Hepatocyte
[6] = Half life at pH 1.0 assessed as compound hydrolysis; type: physicochemical; details: buffer

## NCCSC(c1ccccc1)(c1ccccc1)c1ccccc1
HCT-116
  GI50: 1210 nM
[1]
  GI50 at 72 h: 1610 nM
NCI-H1299
  GI50: 2300 nM
BXPC-3
  GI50: 2460 nM
[2]
  Ki: 246 nM
[3]
  Ki: 152 nM
K562
  GI50: 2290 nM

## CNC(=O)c1cccc(C(SCCN)(c2ccccc2)c2ccccc2)c1
K562
  GI50: 982 nM

## COc1cccc(C(SCCN)(c2ccccc2)c2ccccc2)c1
[2]
  Ki: 150 nM

## N[C@@H](CSC(c1ccccc1)(c1ccccc1)c1ccc2ccccc2c1)C(=O)O
HCT-116
  GI50: 153 nM
[1]
  GI50 at 72 h: 119 nM
NCI-H1299
  GI50: 227 nM
BXPC-3
  GI50: 245 nM
[3]
  Ki: 4.2 nM
K562
  GI50: 247 nM

## NCCSC(c1ccccc1)(c1ccccc1)c1cccc(OC(F)(F)F)c1
K562
  GI50: 1520 nM

## N[C@@H](CSC(c1ccccc1)(c1ccccc1)c1cccc(O)c1)C(=O)O
[4]
  Papp: impermeable
[2]
  Ki: 48.8 nM
K562
  GI50: 2560 nM

## N[C@@H](CCC(c1ccccc1)(c1ccccc1)c1ccccc1)C(=O)O
HCT-116
  GI50: 1600 nM
[1]
  GI50 at 72 h: 721 nM
NCI-H1299
  GI50: 4020 nM
BXPC-3
  GI50: 4860 nM
K562
  GI50: 2060 nM

## NCCSC(c1ccccc1)(c1ccccc1)c1cccc(C(F)(F)F)c1
[2]
  Ki: 353 nM

## N#Cc1ccc(C(SCCN)(c2ccccc2)c2ccccc2)cc1
[2]
  Ki: 432 nM
K562
  GI50: 2180 nM

## NCCSC(c1ccccc1)(c1ccccc1)c1cccc(F)c1
[2]
  Ki: 377 nM

## NC(CCC(c1ccccc1)(c1ccccc1)c1ccccc1)C(=O)O (racemic)
HCT-116
  GI50: 828 nM
[1]
  GI50 at 72 h: 494 nM
NCI-H1299
  GI50: 2820 nM
BXPC-3
  GI50: 1490 nM
K562
  GI50: 865 nM

## NCCSC(c1ccccc1)(c1ccccc1)c1cccc(C(=O)O)c1
K562
  GI50: 2140 nM

## CC(=O)NCc1cccc(C(SCCN)(c2ccccc2)c2ccccc2)c1
K562
  GI50: 2130 nM

## NCCCC(c1ccccc1)(c1ccccc1)c1cccc(Cl)c1
K562
  GI50: 596 nM

## NCCCC(c1ccccc1)(c1ccccc1)c1ccc(Cl)cc1
HCT-116
  GI50: 230 nM
[1]
  GI50 at 72 h: 308 nM
NCI-H1299
  GI50: 828 nM
BXPC-3
  GI50: 2310 nM
K562
  GI50: 337 nM

## NCCSC(c1ccccc1)(c1ccccc1)c1cccc(Cl)c1
[2]
  Ki: 298 nM
K562
  GI50: 1040 nM

## Cc1ccc(C(CCC(N)C(=O)O)(c2ccccc2)c2ccccc2)cc1 (racemic)
HCT-116
  GI50: 84 nM
[1]
  GI50 at 72 h: 44 nM
NCI-H1299
  GI50: 204 nM
BXPC-3
  GI50: 151 nM

## Cc1cccc(C(SCCN)(c2ccccc2)c2ccccc2)c1
K562
  GI50: 698 nM

## N[C@@H](CSC(c1ccccc1)(c1ccccc1)c1ccccc1)C(=O)O [S-TRITYL-L-CYSTEINE]
[1]
  GI50 at 72 h: 361 nM

## Cc1cccc(C(CC[C@@H](N)C(=O)O)(c2ccccc2)c2ccccc2)c1
HCT-116
  GI50: 51 nM
[1]
  GI50 at 72 h: 26 nM
NCI-H1299
  GI50: 132 nM
BXPC-3
  GI50: 75 nM
Liver microsomes
  CLH: Stable
Liver
  CLH: Stable
[5]
  CLH: Stable

## N[C@@H](CNC(c1ccccc1)(c1ccccc1)c1ccccc1)C(=O)O
[6]
  t1/2: <= 2.9 hr

## NC(=O)c1cccc(C(SC[C@H](N)C(=O)O)(c2ccccc2)c2ccccc2)c1
[4]
  Papp: impermeable
K562
  GI50: 16700 nM

## CN(C)C(=O)c1ccc(C(SCCN)(c2ccccc2)c2ccccc2)cc1
K562
  GI50: 2910 nM

## N#Cc1cccc(C(SCCN)(c2ccccc2)c2ccccc2)c1
[2]
  Ki: 451 nM

## CNC(=O)c1ccc(C(SCCN)(c2ccccc2)c2ccccc2)cc1
K562
  GI50: 3950 nM

## NCCNC(c1ccccc1)(c1ccccc1)c1ccccc1
[6]
  t1/2: 7 h
[2]
  Ki: 2660 nM

## CC(=O)c1cccc(C(SCCN)(c2ccccc2)c2ccccc2)c1
K562
  GI50: 706 nM

## CS(=O)(=O)c1ccc(C(SCCN)(c2ccccc2)c2ccccc2)cc1
K562
  GI50: 2740 nM

## CC(=O)NCc1ccc(C(SCCN)(c2ccccc2)c2ccccc2)cc1
K562
  GI50: 2900 nM

## NCCSC(c1ccccc1)(c1ccccc1)c1ccc(CN)cc1
K562
  GI50: 2590 nM

## CC(=O)c1cccc(C(SC[C@H](N)C(=O)O)(c2ccccc2)c2ccccc2)c1
K562
  GI50: 964 nM

## COc1ccc(C(SC[C@H](N)C(=O)O)(c2ccccc2)c2ccccc2)cc1
[1]
  GI50 at 72 h: 81 nM

## N[C@H](CCC(c1ccccc1)(c1ccccc1)c1ccccc1)C(=O)O
HCT-116
  GI50: 472 nM
[1]
  GI50 at 72 h: 321 nM
NCI-H1299
  GI50: 1320 nM
BXPC-3
  GI50: 1120 nM
K562
  GI50: 776 nM

## Cc1ccc(C(CC[C@@H](N)C(=O)O)(c2ccccc2)c2ccccc2)cc1
HCT-116
  GI50: 40 nM
[1]
  GI50 at 72 h: 27 nM
NCI-H1299
  GI50: 111 nM
BXPC-3
  GI50: 85 nM
K562
  GI50: 82 nM

## NCCCC(c1ccccc1)(c1ccccc1)c1ccccc1
HCT-116
  GI50: 213 nM
[1]
  GI50 at 72 h: 572 nM
NCI-H1299
  GI50: 964 nM
BXPC-3
  GI50: 1220 nM

## NCCSC(c1ccccc1)(c1ccccc1)c1cccc(CN)c1
K562
  GI50: 2020 nM

## CN(C)C(=O)c1cccc(C(SCCN)(c2ccccc2)c2ccccc2)c1
[2]
  Ki: 6060 nM
K562
  GI50: 2830 nM

## Cc1ccc(C(CC[C@H](N)C(=O)O)(c2ccccc2)c2ccccc2)cc1
HCT-116
  GI50: 115 nM
[1]
  GI50 at 72 h: 49 nM
NCI-H1299
  GI50: 305 nM
BXPC-3
  GI50: 268 nM
K562
  GI50: 149 nM

## NCCSC(c1ccccc1)(c1ccccc1)c1ccc(CO)cc1
K562
  GI50: 783 nM

## CC(C)c1cccc(C(SCCN)(c2ccccc2)c2ccccc2)c1
K562
  GI50: 581 nM

## NCCSC(c1ccccc1)(c1ccccc1)c1ccc(C(N)=O)cc1
K562
  GI50: 4340 nM

## CC(=O)c1ccc(C(SC[C@H](N)C(=O)O)(c2ccccc2)c2ccccc2)cc1
[2]
  Ki: 272 nM
K562
  GI50: 4270 nM

## CSc1cccc(C(SCCN)(c2ccccc2)c2ccccc2)c1
[2]
  Ki: 520 nM
K562
  GI50: 1470 nM

## Cc1ccc(C(CCCN)(c2ccccc2)c2ccccc2)cc1
HCT-116
  GI50: 154 nM
[1]
  GI50 at 72 h: 601 nM
NCI-H1299
  GI50: 376 nM
BXPC-3
  GI50: 1600 nM

## Cc1ccc(C(SC[C@H](N)C(=O)O)(c2ccccc2)c2ccccc2)cc1
HCT-116
  GI50: 130 nM
[1]
  GI50 at 72 h: 57 nM
NCI-H1299
  GI50: 242 nM
BXPC-3
  GI50: 284 nM
[3]
  Ki: 13.6 nM
K562
  GI50: 242 nM

## CS(=O)(=O)c1cccc(C(SCCN)(c2ccccc2)c2ccccc2)c1
K562
  GI50: 2560 nM

## Cc1cccc(C(CC[C@H](N)C(=O)O)(c2ccccc2)c2ccccc2)c1
HCT-116
  GI50: 95 nM
[1]
  GI50 at 72 h: 42 nM
NCI-H1299
  GI50: 281 nM
BXPC-3
  GI50: 180 nM
Liver microsomes
  CLH: Stable
Liver
  CLH: Stable
[5]
  CLH: Stable

## NCCOC(c1ccccc1)(c1ccccc1)c1ccccc1
[6]
  t1/2: 2.5 h

## N[C@@H](CSC(c1ccccc1)(c1ccccc1)c1cccc(Cl)c1)C(=O)O
[2]
  Ki: 89.9 nM
K562
  GI50: 2400 nM

## CC(=O)c1ccc(C(SCCN)(c2ccccc2)c2ccccc2)cc1
K562
  GI50: 705 nM

— ChEMBL document CHEMBL2021885, “Triphenylbutanamines: kinesin spindle protein inhibitors with in vivo antitumor activity” (J Med Chem, 2012)
